Results from patent EP1900728A1 (Genecare Research Institute Co., Ltd, priority 2005, dated 2006).
Read-outs that look alike come from different tables or passages of the source.

Tests used:
[1] = target: T1, IκBα ubiquitinating enzyme (SCF complex: ROC1, Cullin1, Skp1, His-TrCP1; with E1, UbcH5b) (Homo sapiens, UniProt P62877+P63208+Q13616+Q9Y297); experiment: Measurement of ubiquitinating enzyme activity (IκBα ubiquitination, time-resolved fluorescence with Eu(K)-labeled ubiquitin and XL665-labeled anti-GST antibody); format: biochemical
T1 construct: His (polyhistidine); made in house; host or cells: insect cells (baculovirus) for the SCF complex and His-E1; E. coli for His-UBCH5b
Outline: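 Human SCF complex with E1 and UbcH5b ubiquitinated GST-IκBα pre-phosphorylated by IKKβ (2 mM ATP, pH 7.4, 1 h, RT), with Eu(K)-ubiquitin, 30 min RT. Stopped with EDTA, XL665 anti-GST added for 2 h; 665/620 nm TR-FRET ratio. % inhibition versus no-compound control and no-SCF blank gave IC50.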

[2] = system: ICAM-1 expression in HT-29 cells; experiment: Measurement of ICAM-1 expressing activity (TNFα-induced ICAM-1 expression, cell ELISA); format: cell-based; conditions: Homo sapiens, Table 6, cell activity inhibition test by method (3), read-out: EVALUATION (IC50 class, inhibition of cell activity)
Outline: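 HT-29 cells pretreated with compound (0.5% DMSO final) for 30 min at 37°C, then stimulated with 30 ng/mL human TNFα for 4 h. Surface ICAM-1 measured by cell ELISA on methanol-fixed cells: anti-ICAM-1 plus POD secondary, TMBZ substrate, absorbance at 450 nm.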

[3] = enzyme activity inhibition test, method (1), Table 5, read-out: EVALUATION
[4] = read-out: EVALUATION, enzyme activity inhibition test, method (1), Table 5

T1 sequence (Q9Y297 whole entry): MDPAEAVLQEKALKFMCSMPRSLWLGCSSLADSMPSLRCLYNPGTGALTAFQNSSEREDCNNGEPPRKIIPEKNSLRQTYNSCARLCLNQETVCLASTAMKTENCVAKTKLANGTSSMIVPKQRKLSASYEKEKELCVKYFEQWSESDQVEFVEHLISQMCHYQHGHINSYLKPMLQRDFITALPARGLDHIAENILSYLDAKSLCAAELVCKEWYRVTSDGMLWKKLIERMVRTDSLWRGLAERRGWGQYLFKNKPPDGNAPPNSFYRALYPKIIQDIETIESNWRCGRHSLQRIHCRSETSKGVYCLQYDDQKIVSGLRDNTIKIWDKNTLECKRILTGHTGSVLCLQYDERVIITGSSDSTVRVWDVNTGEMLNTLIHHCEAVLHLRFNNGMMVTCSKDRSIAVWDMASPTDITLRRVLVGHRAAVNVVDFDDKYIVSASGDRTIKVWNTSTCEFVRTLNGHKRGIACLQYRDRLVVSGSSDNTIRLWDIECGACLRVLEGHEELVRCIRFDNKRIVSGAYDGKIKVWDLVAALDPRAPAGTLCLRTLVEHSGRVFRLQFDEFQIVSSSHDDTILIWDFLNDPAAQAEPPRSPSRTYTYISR
T1 sequence (Q13616 whole entry): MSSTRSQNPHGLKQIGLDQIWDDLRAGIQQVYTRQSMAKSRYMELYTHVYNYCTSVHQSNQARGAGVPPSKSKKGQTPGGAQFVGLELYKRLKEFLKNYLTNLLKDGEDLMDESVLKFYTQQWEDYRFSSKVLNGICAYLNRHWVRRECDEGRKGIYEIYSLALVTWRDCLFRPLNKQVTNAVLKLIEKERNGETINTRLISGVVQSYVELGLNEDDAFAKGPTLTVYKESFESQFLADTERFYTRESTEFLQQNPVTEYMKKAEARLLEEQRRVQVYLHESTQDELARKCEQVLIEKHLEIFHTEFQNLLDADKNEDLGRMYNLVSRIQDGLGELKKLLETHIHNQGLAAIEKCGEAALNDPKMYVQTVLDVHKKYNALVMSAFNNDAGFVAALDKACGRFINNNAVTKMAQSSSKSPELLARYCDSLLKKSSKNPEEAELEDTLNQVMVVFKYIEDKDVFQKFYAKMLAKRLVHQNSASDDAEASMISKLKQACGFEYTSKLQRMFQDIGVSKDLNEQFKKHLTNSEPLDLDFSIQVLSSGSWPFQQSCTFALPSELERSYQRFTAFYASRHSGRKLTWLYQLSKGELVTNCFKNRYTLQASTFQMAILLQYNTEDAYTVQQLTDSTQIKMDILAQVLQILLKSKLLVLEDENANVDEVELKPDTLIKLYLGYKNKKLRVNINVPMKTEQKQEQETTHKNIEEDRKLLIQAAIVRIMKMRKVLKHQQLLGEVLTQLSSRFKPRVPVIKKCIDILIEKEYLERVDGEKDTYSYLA
T1 sequence (P63208 whole entry): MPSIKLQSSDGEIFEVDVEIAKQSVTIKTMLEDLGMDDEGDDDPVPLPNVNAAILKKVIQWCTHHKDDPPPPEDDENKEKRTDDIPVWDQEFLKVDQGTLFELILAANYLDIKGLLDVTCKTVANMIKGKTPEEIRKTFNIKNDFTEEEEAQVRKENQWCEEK
T1 sequence (P62877 whole entry): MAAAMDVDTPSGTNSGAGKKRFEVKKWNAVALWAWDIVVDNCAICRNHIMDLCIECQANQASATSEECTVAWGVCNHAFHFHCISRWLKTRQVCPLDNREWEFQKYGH

Row | IC50 [1, 3] [µM] | IC50 [2] [µM] | Compound | IC50 [1] [µM] | IC50 [1, 4] [µM]
1 | < 10 | 10 to 20 | O=C(O)c1ccc(N2N=C(c3ccncc3)/C(=C/c3ccc(N4CCCC4)cc3)C2=O)cc1 [Compound 287] |  | 
2 | < 10 | < 10 | CCOC(=O)c1ccc(COc2ccc(/C=C3\C(=O)N(c4ccc(S(N)(=O)=O)cc4)N=C3C)cc2OC)o1 [Compound 154] |  | 
3 | < 10 | < 40 | CC1=NN(c2ccc(S(N)(=O)=O)cc2)C(=O)/C1=C\c1ccc2[nH]ccc2c1 [Compound 133] |  | 
4 | 10 to 20 | < 40 | COc1cc(/C=C2\C(=O)N(c3ccccc3)N=C2C)ccc1OCC(=O)OC(C)(C)C [Compound 125] |  | 
5 | < 10 | < 10 | O=C(O)c1ccc(N2N=C(C3CC3)/C(=C/c3ccc4c(c3)OCCO4)C2=O)cc1 [Compound 319] |  | 
6 | < 10 | < 10 | CC(=O)c1ccc(-c2ccc(/C=C3\C(=O)N(c4ccc(C(=O)O)cc4)N=C3C)o2)cc1 [Compound 502] |  | 
7 | 10 to 20 | < 40 | CC1=NN(c2ccc(C(=O)O)cc2)C(=O)/C1=C\c1ccc(N2CCCC2)cc1 [Compound 256] |  | 
8 | < 10 | 10 to 20 | CC1=NN(c2ccc(C(=O)O)cc2)C(=O)/C1=C\c1ccc2c(ccn2Cc2c(C)noc2C)c1 [Compound 497] |  | 
9 | < 10 | < 10 | CCOC(=O)c1ccccc1-c1ccc(/C=C2\C(=O)N(c3ccc(C(=O)O)cc3)N=C2C)o1 [Compound 527] |  | 
10 | 10 to 20 | < 10 | COc1cc(/C=C2/C(=O)N(C3CCCCC3)N=C2C)ccc1O [Compound 199] |  | 
11 | < 10 | 10 to 20 | CC1=NN(c2ccc(C(=O)O)cc2)C(=O)/C1=C\c1ccc2ccccc2c1 [Compound 253] |  | 
12 | < 10 | 10 to 20 | CC1=NN(Cc2cccc(O)c2)C(=O)/C1=C\c1ccc(-c2ccccc2F)o1 [Compound 185] |  | 
13 | < 10 | < 40 | CC1=NN(c2cccc(S(N)(=O)=O)c2)C(=O)/C1=C\c1ccc2[nH]ccc2c1 [Compound 134] |  | 
14 | < 10 | < 40 | O=C1/C(=C\c2ccc3c(c2)OCCO3)C(C2CC2)=NN1c1ccccc1 [Compound 77] |  | 
15 | < 10 | < 40 | COC(=O)c1ccc(COc2ccc(/C=C3\C(=O)N(c4ccc(S(N)(=O)=O)cc4)N=C3C)cc2OC)cc1 [Compound 120] |  | 
16 | 10 to 20 | 10 to 20 | CC1=NN(c2ccc(C(=O)N(C)CCO)cc2)C(=O)/C1=C\c1ccc2c(c1)OCCO2 [Compound 412] |  | 
17 | < 10 | < 10 | COCCC1=NN(c2ccc(C(=O)O)cc2)C(=O)/C1=C\c1ccc(-c2ccccc2F)o1 [Compound 522] |  | 
18 | 10 to 20 | < 10 | COc1cccc(-c2ccc(/C=C3\C(=O)N(c4cccc(C(=O)O)c4)N=C3C)o2)c1 [Compound 503] |  | 
19 | < 10 | 10 to 20 | COc1ccc(C2=NN(c3ccc(C(=O)O)cc3)C(=O)/C2=C\c2ccc(OCc3ccccc3)c(OC)c2)cc1OC [Compound 277] |  | 
20 | < 10 | 10 to 20 | CC1=NN(c2ccc(C(=O)O)cc2)C(=O)/C1=C\c1ccc2occc2c1 [Compound 370] |  | 
21 | < 10 | < 40 | CC1=NN(c2ccc(C(=O)O)cc2)C(=O)/C1=C\c1ccc(-c2cccc(Cl)c2)o1 [Compound 454] |  | 
22 | < 10 | < 40 | COC(=O)N1CCN(c2ccc(/C=C3\C(=O)N(c4ccccc4)N=C3c3ccoc3)cc2)CC1 [Compound 14] |  | 

Row | IC50 [1, 3] [µM] | IC50 [2] [µM] | Compound | IC50 [1] [µM] | IC50 [1, 4] [µM]
23 | < 10 | 10 to 20 | CC1=NN(c2ccc(S(N)(=O)=O)cc2)C(=O)/C1=C\c1cc2ccccc2o1 [Compound 168] |  | 
24 | < 10 | < 10 | CC1=NN(c2ccc(C(=O)O)cc2)C(=O)/C1=C\c1ccc(-c2ccccc2Cl)o1 [Compound 456] |  | 
25 | < 10 | 10 to 20 | CC1=NN(c2ccc(C(=O)O)cc2)C(=O)/C1=C\c1ccc(OCC(N)=O)cc1 [Compound 536] |  | 
26 | 10 to 20 | < 40 | CC1=NN(c2ccc(C(=O)N3CCC(CO)CC3)cc2)C(=O)/C1=C\c1ccc2c(c1)OCCO2 [Compound 387] |  | 
27 | < 10 | 10 to 20 | O=C1/C(=C\c2ccc(CO)o2)C(Cc2ccccc2)=NN1c1ccccc1 [Compound 27] |  | 
28 | < 10 | 10 to 20 | COc1cc(/C=C2\C(=O)N(c3ccc(C(=O)O)cc3)N=C2C)ccc1OCC(=O)OC(C)(C)C [Compound 346] |  | 
29 | < 10 | 10 to 20 | O=C(O)c1ccc(N2N=C(C3CC3)/C(=C/c3ccc(-n4cccn4)cc3)C2=O)cc1 [Compound 322] |  | 
30 | 10 to 20 | < 40 | CC1=NN(c2ccc(C(=O)O)cc2)C(=O)/C1=C\c1ccc(N2CCN(C(=O)OC(C)(C)C)CC2)cc1 [Compound 436] |  | 
31 | < 10 | 10 to 20 | O=C1/C(=C\c2ccc(CO)o2)C(c2ccoc2)=NN1c1ccccc1 [Compound 16] |  | 
32 | 10 to 20 | 10 to 20 | O=C(O)c1ccc(N2N=C(c3ccccn3)/C(=C/c3ccc(N4CCCC4)cc3)C2=O)cc1 [Compound 291] |  | 
33 | < 10 | < 40 | CC1=NN(c2cccc(C(=O)N3CCOCC3)c2)C(=O)/C1=C\c1ccc2c(c1)OCCO2 [Compound 411] |  | 
34 | < 10 | < 10 | COCC1=NN(c2ccc(C(=O)O)cc2)C(=O)/C1=C\c1ccc(CO)o1 [Compound 328] |  | 
35 | < 40 | < 10 | COc1cc(/C=C2\C(=O)N(c3ccccn3)N=C2C)ccc1O [Compound 129] |  | 
36 | < 10 | 10 to 20 | CC1=NN(c2cccc(C(=O)O)c2)C(=O)/C1=C\c1ccc(N2CCN(c3ccc(F)cc3)CC2)cc1 [Compound 449] |  | 
37 | < 10 | < 10 | COc1ccc(C2=NN(c3ccc(C(=O)O)cc3)C(=O)/C2=C\c2ccc3c(c2)OCCO3)cc1OC [Compound 283] |  | 
38 | < 10 | < 40 | COc1cc(/C=C2\C(=O)N(c3ccccc3)N=C2c2ccoc2)ccc1OCc1ccccc1 [Compound 94] |  | 
39 | 10 to 20 | 10 to 20 | CCCCC1=NN(c2cccc(C(=O)O)c2)C(=O)/C1=C\c1ccc(N2CCCC2)cc1 [Compound 479] |  | 
40 | < 10 | < 10 | COCC1=NN(c2ccc(C(=O)O)cc2)C(=O)/C1=C\c1ccc2ccccc2c1 [Compound 233] |  | 
41 | < 10 | < 10 | O=C(O)c1ccc(N2N=C(Cc3ccccc3)/C(=C/c3ccc(-c4ccccc4F)o3)C2=O)cc1 [Compound 267, 4-{3-Benzyl-4-[5-(2-fluorophenyl)-furan-2-ylmethylenc]-5-oxo-4.5-dihydropyrazol-1-yl} benzoic acid] |  | 
42 | < 10 | < 40 | COCC1=NN(c2ccc(C(=O)O)cc2)C(=O)/C1=C\c1ccc(-n2ccnc2)cc1 [Compound 238] |  | 
43 | < 10 | < 10 | COCC1=NN(c2ccc(C(=O)O)cc2)C(=O)/C1=C\c1ccc(N2CCN(C(=O)OC)CC2)cc1 [Compound 235] |  | 
44 | 10 to 20 | 10 to 20 | CC1=NN(c2ccc(S(N)(=O)=O)cc2)C(=O)/C1=C\c1ccc(N2CCCCC2)cc1 [Compound 126] |  | 

Row | Compound | IC50 [1, 3] [µM] | IC50 [2] [µM] | IC50 [1] [µM] | IC50 [1, 4] [µM]
45 | CCCCC1=NN(c2ccc(C(=O)O)cc2)C(=O)C1=Cc1ccc(O)c(OC)c1 [Compound 295] |  | 10 to 20 | 10 to 20 | 
46 | CCOC(=O)COc1ccc(C=C2C(=O)N(c3ccc(S(N)(=O)=O)cc3)N=C2C)cc1 [Compound 215] |  | 10 to 20 | 10 to 20 | 
47 | COc1cc(C=C2C(=O)N(Cc3ccccc3)N=C2C)ccc1O [Compound 201] |  | 10 to 20 | < 10 | 
48 | O=C(O)c1cccc(N2N=C(c3ccoc3)C(=Cc3ccc4[nH]ccc4c3)C2=O)c1 [Compound 475, 3-(3-Furan-3-yl-4-(1H-indol-ylmethylene)-5-oxo-4,5-dihydropyrazol-1-yl) benzoic acid] |  | 10 to 20 |  | < 10
49 | CCCCC1=NN(c2ccccc2)C(=O)C1=Cc1ccc(-n2cccn2)cc1 [Compound 58] |  | < 40 | < 10 | 
50 | CC1=NN(c2ccccc2)C(=O)C1=Cc1ccc(Oc2ccccc2)cc1 [Compound 212] |  | 10 to 20 | 10 to 20 | 
51 | COC(=O)N1CCN(c2ccc(C=C3C(=O)N(c4ccc(C(=O)O)cc4)N=C3C)cc2)CC1 [Compound 254] |  | < 40 | < 10 | 
52 | CC1=NN(c2ccc(S(N)(=O)=O)cc2)C(=O)C1=Cc1ccc(NC(=O)c2ccc3ccccc3c2)cc1 [Compound 227] |  | 10 to 20 | < 10 | 
53 | COCC1=NN(c2ccc(C(=O)O)cc2)C(=O)C1=Cc1ccc(OCc2ccccc2)c(OC)c1 [Compound 234, 4-[4-(Benzyloxy-3-methoxy-benzylidine)-3-methoxymethyl-5-oxo-4,5-dihydroxy-pyrazol-1-yl] benzoic acid] |  | < 10 |  | < 10
54 | CCCCC1=NN(c2ccc(C(=O)O)cc2)C(=O)C1=Cc1ccc2c(c1)OCO2 [Compound 480] |  | 10 to 20 | < 10 | 
55 | CC1=NN(c2ccc(S(N)(=O)=O)cc2)C(=O)C1=Cc1ccc(NC(=O)c2ccccc2F)cc1 [Compound 225] |  | < 40 | < 10 | 
56 | CC1=NN(c2ccc(C(=O)O)cc2)C(=O)C1=Cc1ccc(OCC(=O)N(C)C)cc1 [Compound 535] |  | 10 to 20 | 10 to 20 | 
57 | CC1=NN(c2ccc(C(=O)O)cc2)C(=O)C1=Cc1ccc(OCc2ccc([N+](=O)[O-])cc2)cc1 [Compound 541] |  | < 10 | < 10 | 
